Results published in ChEMBL document CHEMBL5370550, “Structure-guided optimization of adenosine mimetics as selective and potent inhibitors of coronavirus nsp14 N7-methyltransferases” (Eur J Med Chem, 2023).
Calls of active or inactive are those of the source. No cut-off for these calls is given here.

Biological target: Replicase polyprotein 1ab (Severe acute respiratory syndrome-related coronavirus) (UniProt P0C6X7)
Conditions: dose 5.0 µM, time 30.0 min

| Compound | inhibition |
| --- | --- |
| Cc1ccc(S(=O)(=O)N(C)C[C@H]2O[C@@H](n3cc(C#Cc4cnc5ccccc5c4)c4c(N)ncnc43)[C@H](O)[C@@H]2O)cc1[N+](=O)[O-] | 1.9% |
| CCN(C[C@H]1O[C@@H](n2cnc3c(NC)ncnc32)[C@H](O)[C@@H]1O)S(=O)(=O)c1ccc(OC)c([N+](=O)[O-])c1 | 16.4% |
| COc1ccc(S(=O)(=O)NC[C@H]2O[C@@H](n3cnc4c(=O)[nH]cnc43)[C@H](O)[C@@H]2O)cc1[N+](=O)[O-] | 91.7% |
| CNc1ncnc2c1ncn2[C@@H]1O[C@H](CNS(=O)(=O)c2ccc(OC)c([N+](=O)[O-])c2)[C@@H](O)[C@H]1O | 41.9% |
| CNc1ncnc2c1ncn2[C@@H]1O[C@H](CNS(=O)(=O)c2ccc(C)c(Cl)c2)[C@@H](O)[C@H]1O | 53.5% |
| CNc1ncnc2c1ncn2[C@@H]1O[C@H](CNS(=O)(=O)c2ccc(Br)c([N+](=O)[O-])c2)[C@@H](O)[C@H]1O | 54% |
| COc1ccc(S(=O)(=O)N(C)C[C@H]2O[C@@H](n3cc(C#Cc4ccccc4)c4c(N)ncnc43)[C@H](O)[C@@H]2O)cc1[N+](=O)[O-] | 0.5% |
| CNc1ncnc2c1ncn2[C@@H]1O[C@H](CNS(=O)(=O)c2ccc(C)c([N+](=O)[O-])c2)[C@@H](O)[C@H]1O | 66.4% |
| CCN(C[C@H]1O[C@@H](n2cnc3c(=O)[nH]cnc32)[C@H](O)[C@@H]1O)S(=O)(=O)c1ccc(OC)c(C#N)c1 | 48.1% |
| CN(C[C@H]1O[C@@H](n2cc(C#Cc3cnc4ccccc4c3)c3c(N)ncnc32)[C@H](O)[C@@H]1O)S(=O)(=O)c1ccc(Br)c([N+](=O)[O-])c1 | 5.5% |
| CN(C[C@H]1O[C@@H](n2cc(C#Cc3ccccc3)c3c(N)ncnc32)[C@H](O)[C@@H]1O)S(=O)(=O)c1ccc(Br)c([N+](=O)[O-])c1 | 3.3% |
| CCN(C[C@H]1O[C@@H](n2cnc3c(NC)ncnc32)[C@H](O)[C@@H]1O)S(=O)(=O)c1ccc(Br)c([N+](=O)[O-])c1 | 29.5% |

Biological target: Replicase polyprotein 1ab (Severe acute respiratory syndrome coronavirus 2) (UniProt P0DTD1)
Conditions: dose 5.0 µM, time 30.0 min, values are per cent of control

| Compound | residual activity |
| --- | --- |
| Cc1ccc(S(=O)(=O)N(C)C[C@H]2O[C@@H](n3cc(C#Cc4cnc5ccccc5c4)c4c(N)ncnc43)[C@H](O)[C@@H]2O)cc1[N+](=O)[O-] | 4.2% |
| CCN(C[C@H]1O[C@@H](n2cnc3c(NC)ncnc32)[C@H](O)[C@@H]1O)S(=O)(=O)c1ccc(OC)c([N+](=O)[O-])c1 | 10.3% |
| COc1ccc(S(=O)(=O)NC[C@H]2O[C@@H](n3cnc4c(=O)[nH]cnc43)[C@H](O)[C@@H]2O)cc1[N+](=O)[O-] | 93.6% |
| CNc1ncnc2c1ncn2[C@@H]1O[C@H](CNS(=O)(=O)c2ccc(OC)c([N+](=O)[O-])c2)[C@@H](O)[C@H]1O | 31.5% |
| CNc1ncnc2c1ncn2[C@@H]1O[C@H](CNS(=O)(=O)c2ccc(C)c(Cl)c2)[C@@H](O)[C@H]1O | 45.4% |
| CNc1ncnc2c1ncn2[C@@H]1O[C@H](CNS(=O)(=O)c2ccc(Br)c([N+](=O)[O-])c2)[C@@H](O)[C@H]1O | 33.8% |
| COc1ccc(S(=O)(=O)N(C)C[C@H]2O[C@@H](n3cc(C#Cc4ccccc4)c4c(N)ncnc43)[C@H](O)[C@@H]2O)cc1[N+](=O)[O-] | 0% |
| CNc1ncnc2c1ncn2[C@@H]1O[C@H](CNS(=O)(=O)c2ccc(C)c([N+](=O)[O-])c2)[C@@H](O)[C@H]1O | 38.7% |
| CCN(C[C@H]1O[C@@H](n2cnc3c(=O)[nH]cnc32)[C@H](O)[C@@H]1O)S(=O)(=O)c1ccc(OC)c(C#N)c1 | 30.7% |
| CN(C[C@H]1O[C@@H](n2cc(C#Cc3cnc4ccccc4c3)c3c(N)ncnc32)[C@H](O)[C@@H]1O)S(=O)(=O)c1ccc(Br)c([N+](=O)[O-])c1 | 5.4% |
| CN(C[C@H]1O[C@@H](n2cc(C#Cc3ccccc3)c3c(N)ncnc32)[C@H](O)[C@@H]1O)S(=O)(=O)c1ccc(Br)c([N+](=O)[O-])c1 | 5% |
| CCN(C[C@H]1O[C@@H](n2cnc3c(NC)ncnc32)[C@H](O)[C@@H]1O)S(=O)(=O)c1ccc(Br)c([N+](=O)[O-])c1 | 15.2% |

Tested on: not listed separately
Assay: Cytotoxicity against Green monkey VeroE6/TMPRSS2 cells assessed as reduction in cell viability upto 10 uM by CellTiter Blue assay
Type: toxicity, cell-based
Conditions: chlorocebus sabaeus, veroe6/tmprss2, 10 µM

| Compound | Activity |
| --- | --- |
| Cc1ccc(S(=O)(=O)N(C)C[C@H]2O[C@@H](n3cc(C#Cc4cnc5ccccc5c4)c4c(N)ncnc43)[C@H](O)[C@@H]2O)cc1[N+](=O)[O-] | Non-Toxic |
| COc1ccc(S(=O)(=O)N(C)C[C@H]2O[C@@H](n3cc(C#Cc4ccccc4)c4c(N)ncnc43)[C@H](O)[C@@H]2O)cc1[N+](=O)[O-] | Non-Toxic |
| CN(C[C@H]1O[C@@H](n2cc(C#Cc3cnc4ccccc4c3)c3c(N)ncnc32)[C@H](O)[C@@H]1O)S(=O)(=O)c1ccc(Br)c([N+](=O)[O-])c1 | Non-Toxic |
| CN(C[C@H]1O[C@@H](n2cc(C#Cc3ccccc3)c3c(N)ncnc32)[C@H](O)[C@@H]1O)S(=O)(=O)c1ccc(Br)c([N+](=O)[O-])c1 | Non-Toxic |

Biological target: mRNA cap guanine-N(7) methyltransferase (Homo sapiens, UniProt O43148)
Sequence (O43148 whole entry): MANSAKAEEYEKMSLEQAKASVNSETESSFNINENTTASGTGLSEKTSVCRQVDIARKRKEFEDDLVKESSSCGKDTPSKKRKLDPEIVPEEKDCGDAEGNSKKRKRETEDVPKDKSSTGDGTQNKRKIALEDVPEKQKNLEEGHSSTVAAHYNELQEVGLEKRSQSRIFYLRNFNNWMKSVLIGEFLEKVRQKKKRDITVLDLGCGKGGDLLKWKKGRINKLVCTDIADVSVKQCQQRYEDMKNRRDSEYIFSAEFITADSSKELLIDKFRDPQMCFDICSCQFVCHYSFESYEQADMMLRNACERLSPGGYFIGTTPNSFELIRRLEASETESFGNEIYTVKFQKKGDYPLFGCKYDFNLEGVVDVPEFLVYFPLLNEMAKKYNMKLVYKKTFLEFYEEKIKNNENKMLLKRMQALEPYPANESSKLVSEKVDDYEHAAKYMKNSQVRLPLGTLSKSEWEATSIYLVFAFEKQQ
Conditions: dose 5.0 µM, time 30.0 min

| Compound | inhibition |
| --- | --- |
| Cc1ccc(S(=O)(=O)N(C)C[C@H]2O[C@@H](n3cc(C#Cc4cnc5ccccc5c4)c4c(N)ncnc43)[C@H](O)[C@@H]2O)cc1[N+](=O)[O-] | 86.7% |
| CCN(C[C@H]1O[C@@H](n2cnc3c(NC)ncnc32)[C@H](O)[C@@H]1O)S(=O)(=O)c1ccc(OC)c([N+](=O)[O-])c1 | 73.3% |
| COc1ccc(S(=O)(=O)NC[C@H]2O[C@@H](n3cnc4c(=O)[nH]cnc43)[C@H](O)[C@@H]2O)cc1[N+](=O)[O-] | inactive |
| CNc1ncnc2c1ncn2[C@@H]1O[C@H](CNS(=O)(=O)c2ccc(OC)c([N+](=O)[O-])c2)[C@@H](O)[C@H]1O | inactive |
| CNc1ncnc2c1ncn2[C@@H]1O[C@H](CNS(=O)(=O)c2ccc(C)c(Cl)c2)[C@@H](O)[C@H]1O | 92% |
| CNc1ncnc2c1ncn2[C@@H]1O[C@H](CNS(=O)(=O)c2ccc(Br)c([N+](=O)[O-])c2)[C@@H](O)[C@H]1O | 57% |
| COc1ccc(S(=O)(=O)N(C)C[C@H]2O[C@@H](n3cc(C#Cc4ccccc4)c4c(N)ncnc43)[C@H](O)[C@@H]2O)cc1[N+](=O)[O-] | inactive |
| CNc1ncnc2c1ncn2[C@@H]1O[C@H](CNS(=O)(=O)c2ccc(C)c([N+](=O)[O-])c2)[C@@H](O)[C@H]1O | 66.4% |
| CCN(C[C@H]1O[C@@H](n2cnc3c(=O)[nH]cnc32)[C@H](O)[C@@H]1O)S(=O)(=O)c1ccc(OC)c(C#N)c1 | 88.9% |
| CN(C[C@H]1O[C@@H](n2cc(C#Cc3cnc4ccccc4c3)c3c(N)ncnc32)[C@H](O)[C@@H]1O)S(=O)(=O)c1ccc(Br)c([N+](=O)[O-])c1 | 52.3% |
| CN(C[C@H]1O[C@@H](n2cc(C#Cc3ccccc3)c3c(N)ncnc32)[C@H](O)[C@@H]1O)S(=O)(=O)c1ccc(Br)c([N+](=O)[O-])c1 | 95.9% |
| CCN(C[C@H]1O[C@@H](n2cnc3c(NC)ncnc32)[C@H](O)[C@@H]1O)S(=O)(=O)c1ccc(Br)c([N+](=O)[O-])c1 | inactive |

Biological target: Nonstructural protein 5 (Dengue virus) (UniProt V5TFZ2)
Sequence (V5TFZ2 as listed by the source): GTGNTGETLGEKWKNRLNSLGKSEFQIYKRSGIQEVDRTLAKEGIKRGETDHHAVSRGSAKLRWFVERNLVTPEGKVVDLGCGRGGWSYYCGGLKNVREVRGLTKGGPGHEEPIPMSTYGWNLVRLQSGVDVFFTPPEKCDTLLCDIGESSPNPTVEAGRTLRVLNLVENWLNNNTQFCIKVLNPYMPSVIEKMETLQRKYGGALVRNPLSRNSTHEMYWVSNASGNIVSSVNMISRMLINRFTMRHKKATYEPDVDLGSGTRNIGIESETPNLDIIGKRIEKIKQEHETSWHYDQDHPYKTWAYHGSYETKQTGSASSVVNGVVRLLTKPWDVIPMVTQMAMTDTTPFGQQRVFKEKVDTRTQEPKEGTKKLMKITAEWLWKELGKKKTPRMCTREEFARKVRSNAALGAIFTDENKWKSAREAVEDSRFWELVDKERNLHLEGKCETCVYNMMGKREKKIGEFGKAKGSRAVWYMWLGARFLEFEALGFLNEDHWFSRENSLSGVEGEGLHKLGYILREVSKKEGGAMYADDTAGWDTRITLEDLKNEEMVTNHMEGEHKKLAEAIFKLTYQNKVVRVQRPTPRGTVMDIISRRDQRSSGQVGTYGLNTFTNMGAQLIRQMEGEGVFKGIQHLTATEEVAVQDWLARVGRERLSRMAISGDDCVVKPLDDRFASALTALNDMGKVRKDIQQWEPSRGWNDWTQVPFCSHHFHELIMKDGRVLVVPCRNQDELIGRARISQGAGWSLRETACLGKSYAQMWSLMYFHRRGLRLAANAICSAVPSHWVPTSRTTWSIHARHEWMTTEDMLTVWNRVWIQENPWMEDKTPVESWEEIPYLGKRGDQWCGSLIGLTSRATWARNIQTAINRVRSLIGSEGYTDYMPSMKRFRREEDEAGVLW
Conditions: dengue virus type 3; dose 5.0 µM, time 30.0 min

| Compound | inhibition |
| --- | --- |
| Cc1ccc(S(=O)(=O)N(C)C[C@H]2O[C@@H](n3cc(C#Cc4cnc5ccccc5c4)c4c(N)ncnc43)[C@H](O)[C@@H]2O)cc1[N+](=O)[O-] | 96% |
| CCN(C[C@H]1O[C@@H](n2cnc3c(NC)ncnc32)[C@H](O)[C@@H]1O)S(=O)(=O)c1ccc(OC)c([N+](=O)[O-])c1 | 90% |
| COc1ccc(S(=O)(=O)NC[C@H]2O[C@@H](n3cnc4c(=O)[nH]cnc43)[C@H](O)[C@@H]2O)cc1[N+](=O)[O-] | inactive |
| CNc1ncnc2c1ncn2[C@@H]1O[C@H](CNS(=O)(=O)c2ccc(OC)c([N+](=O)[O-])c2)[C@@H](O)[C@H]1O | inactive |
| CNc1ncnc2c1ncn2[C@@H]1O[C@H](CNS(=O)(=O)c2ccc(C)c(Cl)c2)[C@@H](O)[C@H]1O | inactive |
| CNc1ncnc2c1ncn2[C@@H]1O[C@H](CNS(=O)(=O)c2ccc(Br)c([N+](=O)[O-])c2)[C@@H](O)[C@H]1O | 78.1% |
| COc1ccc(S(=O)(=O)N(C)C[C@H]2O[C@@H](n3cc(C#Cc4ccccc4)c4c(N)ncnc43)[C@H](O)[C@@H]2O)cc1[N+](=O)[O-] | 91.6% |
| CNc1ncnc2c1ncn2[C@@H]1O[C@H](CNS(=O)(=O)c2ccc(C)c([N+](=O)[O-])c2)[C@@H](O)[C@H]1O | 76.6% |
| CCN(C[C@H]1O[C@@H](n2cnc3c(=O)[nH]cnc32)[C@H](O)[C@@H]1O)S(=O)(=O)c1ccc(OC)c(C#N)c1 | 89.8% |
| CN(C[C@H]1O[C@@H](n2cc(C#Cc3cnc4ccccc4c3)c3c(N)ncnc32)[C@H](O)[C@@H]1O)S(=O)(=O)c1ccc(Br)c([N+](=O)[O-])c1 | inactive |
| CN(C[C@H]1O[C@@H](n2cc(C#Cc3ccccc3)c3c(N)ncnc32)[C@H](O)[C@@H]1O)S(=O)(=O)c1ccc(Br)c([N+](=O)[O-])c1 | 96.9% |
| CCN(C[C@H]1O[C@@H](n2cnc3c(NC)ncnc32)[C@H](O)[C@@H]1O)S(=O)(=O)c1ccc(Br)c([N+](=O)[O-])c1 | 98% |

Tested on: SARS-CoV-2
Assay: Antiviral activity against SARS-CoV-2 B.1 infected in Green monkey VeroE6/TMPRSS2 cells assessed as viral replication inhibition at 10 uM incubated for 2 days by qRT-PCR analysis relative to control
Type: functional
Conditions: Severe acute respiratory syndrome coronavirus 2, time 2.0 day

| Compound | Activity |
| --- | --- |
| COc1ccc(S(=O)(=O)N(C)C[C@H]2O[C@@H](n3cc(C#Cc4ccccc4)c4c(N)ncnc43)[C@H](O)[C@@H]2O)cc1[N+](=O)[O-] | inactive |
| CN(C[C@H]1O[C@@H](n2cc(C#Cc3ccccc3)c3c(N)ncnc32)[C@H](O)[C@@H]1O)S(=O)(=O)c1ccc(Br)c([N+](=O)[O-])c1 | inactive |

Same assay, conditions: time 2 day

| Compound | Activity |
| --- | --- |
| Cc1ccc(S(=O)(=O)N(C)C[C@H]2O[C@@H](n3cc(C#Cc4cnc5ccccc5c4)c4c(N)ncnc43)[C@H](O)[C@@H]2O)cc1[N+](=O)[O-] | 50% |
| CN(C[C@H]1O[C@@H](n2cc(C#Cc3cnc4ccccc4c3)c3c(N)ncnc32)[C@H](O)[C@@H]1O)S(=O)(=O)c1ccc(Br)c([N+](=O)[O-])c1 | 50% |

Biological target: Replicase polyprotein 1ab (Severe acute respiratory syndrome coronavirus 2, UniProt P0DTD1)
Conditions: not given

| Compound | IC50 |
| --- | --- |
| Cc1ccc(S(=O)(=O)N(C)C[C@H]2O[C@@H](n3cc(C#Cc4cnc5ccccc5c4)c4c(N)ncnc43)[C@H](O)[C@@H]2O)cc1[N+](=O)[O-] | 2.1 nM |
| CCN(C[C@H]1O[C@@H](n2cnc3c(NC)ncnc32)[C@H](O)[C@@H]1O)S(=O)(=O)c1ccc(OC)c([N+](=O)[O-])c1 | 274 nM |
| CNc1ncnc2c1ncn2[C@@H]1O[C@H](CNS(=O)(=O)c2ccc(OC)c([N+](=O)[O-])c2)[C@@H](O)[C@H]1O | 573 nM |
| CNc1ncnc2c1ncn2[C@@H]1O[C@H](CNS(=O)(=O)c2ccc(C)c(Cl)c2)[C@@H](O)[C@H]1O | 2180 nM |
| CNc1ncnc2c1ncn2[C@@H]1O[C@H](CNS(=O)(=O)c2ccc(Br)c([N+](=O)[O-])c2)[C@@H](O)[C@H]1O | 3410 nM |
| COc1ccc(S(=O)(=O)N(C)C[C@H]2O[C@@H](n3cc(C#Cc4ccccc4)c4c(N)ncnc43)[C@H](O)[C@@H]2O)cc1[N+](=O)[O-] | 2.8 nM |
| CNc1ncnc2c1ncn2[C@@H]1O[C@H](CNS(=O)(=O)c2ccc(C)c([N+](=O)[O-])c2)[C@@H](O)[C@H]1O | 2850 nM |
| CCN(C[C@H]1O[C@@H](n2cnc3c(=O)[nH]cnc32)[C@H](O)[C@@H]1O)S(=O)(=O)c1ccc(OC)c(C#N)c1 | 4000 nM |
| CN(C[C@H]1O[C@@H](n2cc(C#Cc3cnc4ccccc4c3)c3c(N)ncnc32)[C@H](O)[C@@H]1O)S(=O)(=O)c1ccc(Br)c([N+](=O)[O-])c1 | 3.5 nM |
| CN(C[C@H]1O[C@@H](n2cc(C#Cc3ccccc3)c3c(N)ncnc32)[C@H](O)[C@@H]1O)S(=O)(=O)c1ccc(Br)c([N+](=O)[O-])c1 | 17.3 nM |
| CCN(C[C@H]1O[C@@H](n2cnc3c(NC)ncnc32)[C@H](O)[C@@H]1O)S(=O)(=O)c1ccc(Br)c([N+](=O)[O-])c1 | 383 nM |
